The record followed here is patent US20090239841A1, “Diaryl Ureas as CB1 Antagonists” (priority 2004, published 2009).

As a reminder, the IC50 is the concentration at which inhibition is half-maximal.

Bounds are passed on as bounds.

For the assay, the target named is T1, hCB1 (Homo sapiens, UniProt P21554).
T1 construct: made in house; host or cells: Sf9 insect cells (baculovirus), P2 membranes
T1 sequence (P21554 whole entry): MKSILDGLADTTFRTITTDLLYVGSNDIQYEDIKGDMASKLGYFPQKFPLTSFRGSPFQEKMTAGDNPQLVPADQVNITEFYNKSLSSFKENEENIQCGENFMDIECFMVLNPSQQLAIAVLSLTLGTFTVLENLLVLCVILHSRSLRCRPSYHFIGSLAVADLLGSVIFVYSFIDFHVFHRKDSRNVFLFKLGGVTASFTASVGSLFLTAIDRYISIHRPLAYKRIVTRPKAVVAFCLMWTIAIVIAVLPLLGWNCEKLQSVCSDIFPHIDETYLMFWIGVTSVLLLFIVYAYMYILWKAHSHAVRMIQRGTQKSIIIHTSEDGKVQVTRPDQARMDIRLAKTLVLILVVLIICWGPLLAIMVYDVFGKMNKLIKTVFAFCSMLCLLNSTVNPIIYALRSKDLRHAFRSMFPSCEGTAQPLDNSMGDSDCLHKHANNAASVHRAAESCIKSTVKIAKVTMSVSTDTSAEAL
The assay can be described thus: Agonist-induced GTP binding (GTPγ35S) assay at CB1, Example 8. Type of assay: biochemical. Conditions: Table II; IC50 at CB1, GTP binding with 1 nM CP55,940; read-out: IC50. An outline of the steps:
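Antagonism read as inhibition of 1 nM CP55,940-stimulated GTPγ35S ([…]) binding, compounds at 10^−10 to 10^−5 M. Baculovirus-infected Sf9 membranes bearing hCB1 plus G-protein subunits, 60 min room-temperature incubation with 5 μM GDP. Filtration and scintillation counting; data as percent over basal.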
Regarding `CCOc1cccc(NC(=O)Nc2cccc(F)c2)c1` [Compound 203, N-(3-ethoxyphenyl)-N′-(3-fluorophenyl)urea], the IC50 is less than 2000 nM.

On to `CCOc1cccc(NC(=O)Nc2ccc(F)cc2)c1` [Compound 204, N-(3-ethoxyphenyl)-N′-(4-fluorophenyl)urea], for which the IC50 is less than 2000 nM. For `CCOc1ccc(NC(=O)Nc2cccc(F)c2)cc1` [Compound 205, N-(4-ethoxyphenyl)-N′-(3-fluorophenyl)urea] the value was less than 2000 nM; for `CCOc1ccc(NC(=O)Nc2ccc(F)cc2)cc1` [Compound 206, N-(4-ethoxyphenyl)-N′-(4-fluorophenyl)urea], less than 2000 nM; for `COCc1ccc(NC(=O)Nc2ccc(C)cc2)cc1` [Compound 207, N-[4-(methoxymethyl)phenyl]-N′-(4-methylphenyl)urea], less than 2000 nM.

As for `COCc1ccc(NC(=O)Nc2cccc(F)c2)cc1` [Compound 208, N-(3-fluorophenyl)-N′-[4-(methoxymethyl)phenyl]urea], the IC50 was less than 2000 nM. As for `CCCOc1ccc(NC(=O)Nc2cccc(F)c2)cc1` [Compound 209, N-(3-fluorophenyl)-N′-(4-propoxyphenyl)urea], the figure is less than 2000 nM; as for `CCCOc1ccc(NC(=O)Nc2ccc(F)cc2)cc1` [Compound 210, N-(4-fluorophenyl)-N′-(4-propoxyphenyl)urea], less than 2000 nM.

`CC(C)Oc1cccc(NC(=O)Nc2cccc(F)c2)c1` [Compound 211, N-(3-fluorophenyl)-N′-(3-isopropoxyphenyl)urea]: the IC50 was less than 2000 nM.

Take `CC(C)Oc1cccc(NC(=O)Nc2ccc(F)cc2)c1` [Compound 212, N-(4-fluorophenyl)-N′-(3-isopropoxyphenyl)urea]: the IC50 is less than 2000 nM.

As to `Cc1cccc(NC(=O)Nc2ccc(OC(C)C)cc2)c1` [Compound 213, N-(4-isopropoxyphenyl)-N′-(3-methylphenyl)urea], the IC50 was less than 2000 nM. For `Cc1ccc(NC(=O)Nc2ccc(OC(C)C)cc2)cc1` [Compound 214, N-(4-isopropoxyphenyl)-N′-(4-methylphenyl)urea] the value was less than 2000 nM; for `CC(C)Oc1ccc(NC(=O)Nc2cccc(F)c2)cc1` [Compound 215, N-(3-fluorophenyl)-N′-(4-isopropoxyphenyl)urea], less than 2000 nM; for `CC(C)Oc1ccc(NC(=O)Nc2ccc(F)cc2)cc1` [Compound 216, N-(4-fluorophenyl)-N′-(4-isopropoxyphenyl)urea], less than 2000 nM. As for `Cc1cccc(NC(=O)Nc2cccc(OC(F)F)c2)c1` [Compound 217, N-[3-(difluoromethoxy)phenyl]-N′-(3-methylphenyl)urea], the figure is less than 2000 nM; as for `Cc1ccc(NC(=O)Nc2cccc(OC(F)F)c2)cc1` [Compound 218, N-[3-(difluoromethoxy)phenyl]-N′-(4-methylphenyl)urea], less than 2000 nM. As for `O=C(Nc1cccc(F)c1)Nc1cccc(OC(F)F)c1` [Compound 219, N-[3-(difluoromethoxy)phenyl]-N′-(3-fluorophenyl)urea], the figure is less than 2000 nM.

With `O=C(Nc1ccc(F)cc1)Nc1cccc(OC(F)F)c1` [Compound 220, N-[3-(difluoromethoxy)phenyl]-N′-(4-fluorophenyl)urea], the IC50 was less than 2000 nM.

Regarding `O=C(Nc1ccc(F)cc1)Nc1ccc(OC(F)F)cc1` [Compound 221, N-[4-(difluoromethoxy)phenyl]-N′-(4-fluorophenyl)urea], the IC50 is less than 2000 nM. As for `CCOc1cccc(NC(=O)Nc2ccccc2)c1` [Compound 222, N-(3-ethoxyphenyl)-N′-phenylurea], the figure is less than 2000 nM; as for `CCOc1ccc(NC(=O)Nc2ccccc2)cc1` [Compound 223, N-(4-ethoxyphenyl)-N′-phenylurea], less than 2000 nM; as for `CC(C)Oc1ccc(NC(=O)Nc2ccccc2)cc1` [Compound 224, N-(4-isopropoxyphenyl)-N′-phenylurea], less than 2000 nM. For `O=C(Nc1ccccc1)Nc1cccc(OC(F)F)c1` [Compound 225, N-[3-(difluoromethoxy)phenyl]-N′-phenylurea] the value was less than 2000 nM; for `Cc1ccccc1NC(=O)Nc1cccc(OC(F)F)c1` [Compound 226], less than 2000 nM; for `CCc1ccccc1NC(=O)Nc1cccc(OC(F)F)c1` [Compound 227, N-[3-(difluoromethoxy)phenyl]-N′-(2-ethylphenyl)urea], less than 2000 nM. For the compound `CCc1ccc(NC(=O)Nc2ccc(OC)cc2)cc1` [Compound 228, N-(4-ethylphenyl)-N′-(4-methoxyphenyl)urea], the IC50 was less than 2000 nM. For `COc1ccc(NC(=O)Nc2ccc(Cl)cc2)cc1` [Compound 229, N-(4-chlorophenyl)-N′-(4-methoxyphenyl)urea] the value was less than 2000 nM; for `CCOc1cccc(NC(=O)Nc2cccc(CC)c2)c1` [Compound 230, N-(3-ethoxyphenyl)-N′-(3-ethylphenyl)urea], less than 2000 nM; for `CCOc1cccc(NC(=O)Nc2ccc(CC)cc2)c1` [Compound 231, N-(3-ethoxyphenyl)-N′-(4-ethylphenyl)urea], less than 2000 nM.

As to `CCOc1cccc(NC(=O)Nc2cccc(Cl)c2)c1` [Compound 232, N-(3-chlorophenyl)-N′-(3-ethoxyphenyl)urea], the IC50 was less than 2000 nM. In the case of `CCOc1cccc(NC(=O)Nc2ccc(Cl)cc2)c1` [Compound 233, N-(4-chlorophenyl)-N′-(3-ethoxyphenyl)urea], the IC50 was less than 2000 nM. As for `CCOc1ccc(NC(=O)Nc2cccc(CC)c2)cc1` [Compound 234, N-(4-ethoxyphenyl)-N′-(3-ethylphenyl)urea], the figure is less than 2000 nM. As for `CCOc1ccc(NC(=O)Nc2ccc(CC)cc2)cc1` [Compound 235, N-(4-ethoxyphenyl)-N′-(4-ethylphenyl)urea], the figure is less than 2000 nM; as for `CCOc1ccc(NC(=O)Nc2cccc(Cl)c2)cc1` [Compound 236, N-(3-chlorophenyl)-N′-(4-ethoxyphenyl)urea], less than 2000 nM; as for `CCOc1ccc(NC(=O)Nc2ccc(Cl)cc2)cc1` [Compound 237, N-(4-chlorophenyl)-N′-(4-ethoxyphenyl)urea], less than 2000 nM.

For `CCc1ccc(NC(=O)Nc2cccc(COC)c2)cc1` [Compound 238, N-(4-ethylphenyl)-N′-[3-(methoxymethyl)phenyl]urea], the IC50 was less than 2000 nM. `CCc1cccc(NC(=O)Nc2ccc(COC)cc2)c1` [Compound 239, N-(3-ethylphenyl)-N′-[4-(methoxymethyl)phenyl]urea]: the concentration for half-maximal inhibition (IC50) was less than 2000 nM.

With `CCc1ccc(NC(=O)Nc2ccc(COC)cc2)cc1` [Compound 240, N-(4-ethylphenyl)-N′-[4-(methoxymethyl)phenyl]urea], the IC50 was less than 2000 nM. As to `COCc1ccc(NC(=O)Nc2cccc(Cl)c2)cc1` [Compound 241, N-(3-chlorophenyl)-N′-[4-(methoxymethyl)phenyl]urea], the IC50 was less than 2000 nM. In the case of `COCc1ccc(NC(=O)Nc2ccc(Cl)cc2)cc1` [Compound 242, N-(4-chlorophenyl)-N′-[4-(methoxymethyl)phenyl]urea], the IC50 is less than 2000 nM.

Turning to `CCCOc1ccc(NC(=O)Nc2cccc(CC)c2)cc1` [Compound 243, N-(3-ethylphenyl)-N′-(4-propoxyphenyl)urea], the IC50 was less than 2000 nM.
